Experiment [1] deals with glucose-6-phosphate dehydrogenase in human fibroblasts. The experiment in a line: G6PDH activity in human fibroblasts (in vitro determination of the enzymatic activity). Type of experiment: cell-based. The settings on record: control = 100; for G6PDH activity after 3 days: 3 days incubation. Here is the method:
The G6PDH activity was determined in accordance with the microprocess described by Garidelli de Quincenet in Annual Dermatol. Venereol. 107(12), 1163-1170 (1980). The G6PDH activity was determined in accordance with the process described by Natsuko Okada and Yukio Kitano in: Arch. Dermatol. Res., 271(3): 341-346, 1981 by in vitro determination of the enzymatic activity of the glucose-6-phosphate dehydrogenase in human fibroblasts.
(§1) The DNA content was determined in accordance with the method described by Desaulniers in Toxic. In vitro 12(4), 409-422 (1998). The incubation time of the fibroblasts was in each case 3 days and 6 days. In each case, the average of 4 experiments with triple determination is given.

A further experiment has as its system human fibroblasts. As to the kind of experiment: DNA content of the fibroblasts. Type of experiment: cell-based. As to conditions: control = 100; for DNA content after 3 days: 3 days incubation. The protocol: as §1
Setting [2] is: conc. 0.00003 % by wt., 6 days incubation.

The structures appear in SMILES notation.

`CC1=C(/C=C/C(C)=C/C=C/C(C)=C/C(=O)O)C(C)(C)CCC1` [Retinoic acid]: in experiment [1] (conc. 0.00003 % by wt.), the “G6PDH activity after 3 days” value was found to be 134 rel-%. Also, the “G6PDH activity after 6 days” value in experiment [1] (setting [2]) came to 130 rel-%. Moreover, the “DNA content after 3 days” value in the experiment on human fibroblasts (conc. 0.00003 % by wt.) is given as 76 rel-%. In addition, the “DNA content after 6 days” value in the experiment on human fibroblasts (setting [2]) came to 98 rel-%.

For the compound `CC1=C(/C=C/C(C)=C/C=C/C(C)=C/CO)C(C)(C)CCC1` [Retinol], the “G6PDH activity after 3 days” value in experiment [1] (conc. 0.005 % by wt.) is 400 rel-%. Further, in the experiment on human fibroblasts (conc. 0.005 % by wt.), the “DNA content after 3 days” value amounted to 95 rel-%.

For the compound `COc1cc2c(cc1O)C[C@H]1c3c(cc(O)c(OC)c3-2)CCN1C` [Boldin index B3916 (Sigma), Boldin], in experiment [1] (conc. 0.005 % by wt.), the “G6PDH activity after 3 days” value is given as 200 rel-%. The “DNA content after 3 days” value in the experiment on human fibroblasts (conc. 0.005 % by wt.) was found to be 97 rel-%.

These data come from US20030175366A1, “Plant Extracts and Methods of Treating Skin Therewith” (priority 2000, published 2003).
